Entries after “also recorded” stand apart in the source; their conditions may differ. Marks after values point to notes of the source that are not given here.
Experiments:
[1] = Cytotoxicity MTT assay, fibroblasts; assay type: cell-based, human; conditions: human, MRC fibroblasts, 48 h incubation
Description: (§1) The cytotoxic assay expressed as cell viability was conducted using MTT assay method. Cells at a density of 3 × 10^4 of MRC fibroblasts or AGS cells were plated in 96-well culture dishes. Compounds were assayed at concentrations ranging from 0 up to 500 μM. Incubated at 37 °C in humidified CO2 incubator for 24 h. After incubation, various concentrations in DMSO solvent of the compounds were added. Each compound was tested in quadruplicate and repeated three times. After 48 h incubation, assay was stop by adding MTT reagent (3-(4,5dimethylthiazol-2-yl)-2,5-diphenyltetrazolium bromide) and the incubation continue for next 4 h before the addition of MTT stop solution containing sodium dodecyl sulphate (SDS), the incubation continue for next 24 h. optical density was measured using microplate reader at 550 nm. IC50 value obtained from the plotted graph between percentage live cells compared to control.

[2] = Cytotoxicity MTT assay, AGS cells; assay type: cell-based, human; conditions: human, AGS cells (human gastric epithelial cells), 48 h incubation
Description: as §1

[3] = system: HCl/EtOH-induced gastric lesions in mice; assay: HCl/EtOH-induced gastric lesions model in mice; assay type: in vivo; conditions: for gastroprotective activity (in words): HCl/EtOH-induced gastric lesions model in mice; for Lesion Index (mm) / % Lesion Reduction / inhibition of the appearance of gastric mucosal lesions: mice; for Lesion Index (mm) / % Lesion Reduction: oral, title: 30 mg/kg, method: meroditerpenoids 40 mg/kg, lansoprazole 30 mg/kg; for Lesion Index (mm): mean ± sd, n = 7; for % Lesion Reduction: versus control; for inhibition of the appearance of gastric mucosal lesions: oral administration at 40 mg/kg
Description: The gastroprotective activity of the compounds 4a–5a, and 9, 11 was assessed in the HCl/EtOH-induced lesion model as described previously. Mice were randomly distributed into groups of seven animals each and fasted for 12 h with free access to water prior to the experiment. Fifty min after oral administration of the meroditerpenoids (40 mg/kg), lansoprazole (30 mg/kg) or 1% Tween 80 (10 mL/kg), all groups were orally treated with 0.2 mL of a solution containing 0.3 M HCl/60% ethanol (HCl/EtOH) for gastric lesion induction. Animals were sacrificed 1 h after the administration of HCl/EtOH, and the stomachs were excised and inflated by injection of saline (1 mL). The ulcerated stomachs were fixed in 5% formalin for 30 min and opened along the greater curvature. […] The length (mm) of each lesion was measured, and the lesion index was expressed as the sum of the length of all lesions.

[4] = system: HCl/EtOH-induced gastric lesions in L-NAME-pretreated mice; assay: HCl/EtOH-induced gastric lesions in L-NAME-pretreated mice; assay type: in vivo; conditions: L-NAME 70 mg/kg i.p. 30 min before, 1a 35 mg/kg, 3a 40 mg/kg oral
Description: (§2) To investigate the involvement of endogenous nitric oxide (NO) in the gastroprotective effect of 1a and 3a, L-NAME i.p. (70 mg/kg, an inhibitor of NO synthase was dissolved in saline) was injected 30 min before administration of 1a, 3a or vehicle (L-NAME-treated). Fifty min after oral administration of 1a (35 mg/kg), 3a (40 mg/kg) or vehicle, all groups were orally treated with 0.2 mL of a solution containing 0.3 M HCl/60% ethanol (HCl/EtOH) for gastric lesion induction. Animals were sacrificed 1 h after the administration of HCl/EtOH, and the stomachs were excised and inflated by injection of saline (1 mL). The gastric mucosal lesions were induced and the length of gastric lesions was measured as described above.

[5] = system: HCl/EtOH-induced gastric lesions in indomethacin-pretreated mice; assay: HCl/EtOH-induced gastric lesions in indomethacin-pretreated mice; assay type: in vivo; conditions: indomethacin 30 mg/kg s.c. 30 min before, 1a 35 mg/kg, 3a 40 mg/kg oral
Description: as §2, with “prostaglandins” for “nitric oxide (NO)”, “indomethacin s.c. (30” for “L-NAME i.p. (70”, “the prostaglandin synthesis” for “NO synthase”, “5% NaHCO3)” for “saline)”, “(IND-treated).” for “(L-NAME-treated).”

[6] = system: human fibroblast (MRC fibroblasts); assay: Cytotoxicity MTT assay, fibroblasts; assay type: cell-based; conditions: 48 h incubation
Description: as §1

[7] = system: HCl/EtOH-induced gastric lesions in mice; set-up: method as in PMID 21922901; conditions: cited from earlier work
[8] = system: HCl/EtOH-induced gastric lesions in NEM-pretreated mice; assay: HCl/EtOH-induced gastric lesions in N-ethylmaleimide (NEM)-pretreated mice; assay type: in vivo; conditions: NEM 10 mg/kg s.c. 30 min before, 1a 35 mg/kg, 3a 40 mg/kg oral
Description: as §2, with “sulfhydryl compounds (SHs)” for “endogenous nitric oxide (NO)”, “NEM s.c. (10” for “L-NAME i.p. (70”, “SH blocker” for “inhibitor of NO synthase”, “(NEM-treated).” for “(L-NAME-treated).”

[9] = system: HCl/EtOH-induced gastric lesions in RR-pretreated mice; assay: HCl/EtOH-induced gastric lesions in ruthenium red (RR)-pretreated mice; assay type: in vivo; conditions: RR 3.5 mg/kg s.c. 30 min before; 1a 35 mg/kg, 3a 40 mg/kg oral
Description: as §2, with “vanilloid receptor” for “endogenous nitric oxide (NO)”, “RR s.c. (3.5” for “L-NAME i.p. (70”, “a vanilloid receptor antagonist” for “an inhibitor of NO synthase”, “(RR-treated).” for “(L-NAME-treated).”

[10] = system: human epithelial gastric cells (AGS); assay: Cytotoxicity MTT assay, AGS cells; assay type: cell-based; conditions: 48 h incubation
Description: as §1

| Structure (SMILES) | IC50 at 48 h [1] [µM] | IC50 at 48 h [2] [µM] | gastroprotective activity (in words) [3] | Lesion Index (mm) [3] [mm] | % Lesion Reduction [3] | further results |
| --- | --- | --- | --- | --- | --- | --- |
| CC(=O)Oc1cc(C)c2c(c1OC(C)=O)CC1(O2)C(C)CCC2C3(C)CCC(=O)C(C)(C)C3CCC21C (stereo not drawn) [Compound 11, 14-ketostypodiol diacetate] | 102 ± 6 | 65 ± 4 | inactive | 37.9 ± 7.3 | 9% | – |
| Cc1cc(O)cc2c1OC1(C)CCC3C(C)(CCC4C(C)(C)C(O)CCC43C)C1C2 (stereo not drawn) [Compound 3a, epitaondiol] | – | 29 ± 3 | exhibited gastroprotective activity | 16.7 ± 3.1 | 60 * % | effect of L-NAME pre-treatment on the gastroprotective effect [4]: reduced; effect of L-NAME pre-treatment on the gastroprotective effect ([4]; listed as epitaondiol): reversed significantly; effect of indomethacin pre-treatment on the gastroprotective effect [5]: attenuated; effect of indomethacin pre-treatment on the gastroprotective effect ([5]; listed as epitaondiol): reversed significantly; IC50 [6]: 19 ± 4 µM; gastroprotective activity ED50 [7]: 40 mg/kg; effect of NEM pre-treatment on the gastroprotective effect [8]: reduced; effect of NEM pre-treatment on the gastroprotective effect ([8]; listed as epitaondiol): reversed significantly; effect of ruthenium red pre-treatment on the gastroprotective effect [9]: did not reduce |
| CC(=O)Oc1cc(C)c2c(c1OC(C)=O)CC1(O2)C(C)CCC2C3(C)CCC(OC(C)=O)C(C)(C)C3CCC21C (stereo not drawn) [Compound 9, stypotriol triacetate] | 21 ± 5 | 14 ± 3 | inactive | 36.4 ± 5.2 | 12% | – |
| Cc1c(OCC(F)(F)F)ccnc1C[S+]([O-])c1nc2ccccc2[nH]1 (stereo not drawn) [Lansoprazole, lansoprazole, reference compound] | 392 ± 6 | 198 ± 5 | – | 14.1 ± 3.6 | 66 * % | – |
| Cc1cc(O)cc2c1OC1(C)CCC3C(C)(CCC4C(C)(C)C(O)CCC43C)C1C2 (stereo not drawn) [Compound 5a, isoepitaondiol] | – | – | gastroprotective activity in similar way than positive control | 9.1 ± 3.6 | 78 * % | IC50 [6]: 65 ± 3 µM; IC50 [10]: 42 ± 2 µM; gastroprotective activity (in words) ([3]; listed as isoepitaondiol): exhibited gastroprotective activity; inhibition of the appearance of gastric mucosal lesions [3]: 78% |
| COc1c(C)cc(OC(C)=O)cc1CC1C(C)CCC2C3(C)CCC(OC(C)=O)C(C)(C)C3=CCC12C (stereo not drawn) [Compound 7, O,C(3)-seco-9-ene-6β-taondiol diacetate] | 102 ± 6 | 85 ± 5 | – | – | – | – |
| CC(C)=CCC/C(C)=C/CC/C(C)=C/CC[C@]1(C)C=Cc2cc(O)cc(C)c2O1 [Compound 1a, sargaol] | 12 ± 3 | 18 ± 4 | exhibited gastroprotective activity | 20.0 ± 3.6 | 52 * % | effect of L-NAME pre-treatment on the gastroprotective effect [4]: has not attenuated; effect of indomethacin pre-treatment on the gastroprotective effect [5]: reversed significantly; effect of indomethacin pre-treatment on the gastroprotective effect ([5]; listed as sargaol): attenuated; gastroprotective activity ED50 [7]: 35 mg/kg; effect of NEM pre-treatment on the gastroprotective effect [8]: reduced; also recorded: reversed significantly; effect of NEM pre-treatment on the gastroprotective effect ([8]; listed as sargaol): attenuated; effect of ruthenium red pre-treatment on the gastroprotective effect [9]: did not reduce |
| Cc1cc(O)cc2c1OC1(C2)C(C)CCC2C3(C)CCC(O)C(C)(C)C3CCC21C (stereo not drawn) [Compound 4a, stypodiol] | 215 ± 8 | 153 ± 9 | gastroprotective activity in similar way than positive control | 13.0 ± 4.0 | 69 * % | gastroprotective activity (in words) ([3]; listed as stypodiol): exhibited gastroprotective activity; inhibition of the appearance of gastric mucosal lesions [3]: 69% |
| CC(=O)Oc1c(Cl)c(C)c2c(c1OC(C)=O)CC1(O2)C(C)CCC2C3(C)CCC(OC(C)=O)C(C)(C)C3CCC21C (stereo not drawn) [Compound 8, 4'-chlorostypotriol triacetate] | 12 ± 1 | 11 ± 1 | – | – | – | – |

Reference: publication PMC4413184, “Seco-Taondiol, an Unusual Meroterpenoid from the Chilean Seaweed Stypopodium flabelliforme and Its Gastroprotective Effect in Mouse Model” (Marine Drugs, 2015)
